{"source": "patent US20260325465A1", "about": "“SHP-1 INHIBITORS FOR TREATING CANCER” (MDX MANAGEMENT LLC, priority 2022, published 2026)", "key": {"SHP-1 [1]": {"system": "SHP-1", "assay": "SHP-1 activity in macrophages under proinflammatory stimulation and cancer cell ligation", "type": "cell-based", "settings": "IFNγ/LPS stimulation, cancer cell ligation", "method": "(§1) FIGS. 2A-2G depict that the inhibition of SHP-1 enhances macrophage proinflammatory response, antigen presentation and phagocytosis in a tumor milieu. FIG. 2A and FIG. 2B depict that SHP-1 activity in macrophages is triggered by proinflammatory stimulation and the extracellular cancer cell ligation (“touching”) of macrophages (green bar in FIG. 2A). […] The SHP-2 inhibitor SHP099 (1 μg/ml) was used in assays. FIG. 2C depicts the inhibition of SHP-1 by TPI-1 dose-dependently recovers IFNγ/LPS-induced activation of STAT1 (p-STAT1) and Erk1/2 (p-Erk1/2) de-activated by SHP-1 (red line). FIG. 2D and FIG. 2E depict that the inhibition of SHP-1 in macrophages by TPI-1 enhances production of proinflammatory cytokines (FIG. 2D) and expression of immunogenic antigen presentation machinery (FIG. 2E) by IFNγ/LPS in a tumor milieu. […] The SHP-1 and SHP-2 inhibitors TPI-1 and SHP099, respectively, was used at 1 μg/ml in assays.\nFIGS. 3A-3E depict modulation of SHP-1 activity in proinflammatory macrophages in cancer. Macrophages co-cultured with cancer cells were stimulated with IFNγ/LPS or TLR agonists (αTLR) comprising CpG, polycytidylic acid (i.e., PolyI:C) and R848 (each 0.4 μg/ml) for 30 min (37 °C) in the presence or the absence of different SHP-1 or SHP-2 inhibitor or activator, followed by cell lysis and assays of PTP activity. FIG. 3A depicts SHP-1 activity regulation mechanisms. […] FIG. 3E depicts that PKCθ negatively regulates SHP-1 activity at a moderate level.\nIn addition to TPI-1, several other SHP-1 inhibitors such as PTP inhibitor-I, PTP inhibitor-III, and recently reported vitamin E (9, 10) and phomoxanthone A and B (P×A and P×B) (11) were tested. Given that PKCθ modulates SHP-1 activity through phosphorylating Ser591 (12, 13), PKCθ inhibitor and activator were also tested in various assays."}, "macrophages [2]": {"system": "macrophages", "assay": "Macrophage cytokine production and antigen presentation machinery in a tumor milieu", "type": "cell-based", "settings": "IFNγ/LPS", "method": "as §1\nMacrophages with high SHP-1 activity in a tumor milieu diminish production of proinflammatory cytokines but produce high IL-10 (see FIG. 2D, blue bar) under stimulation of IFNγ/LPS. This reinforcement of immunosuppression was reversed by SHP-1 inhibition. Additionally, inhibition of SHP-1 also enabled proinflammatory-activated macrophages to overcome the “don't-eat-me” barrier and initiate potent phagocytosis towards cancer cells, irrespective of cancer cells expressing of CD47 (FIG. 2F and FIG. 2G)."}, "[3]": {"system": "EL4, B16, MC38, Pan01, KPC and LLC cancer cells", "assay": "Phagocytosis by murine bone marrow-derived macrophages", "type": "cell-based", "settings": "1 μg/ml", "method": "as §1"}, "SHP-1 [4]": {"biological_target": "T1, SHP-1 (Mus musculus, UniProt P29351)", "T1 construct": "lysate pNpp phosphatase activity after TPI-1 pulse", "T1 sequence (P29351 whole entry)": "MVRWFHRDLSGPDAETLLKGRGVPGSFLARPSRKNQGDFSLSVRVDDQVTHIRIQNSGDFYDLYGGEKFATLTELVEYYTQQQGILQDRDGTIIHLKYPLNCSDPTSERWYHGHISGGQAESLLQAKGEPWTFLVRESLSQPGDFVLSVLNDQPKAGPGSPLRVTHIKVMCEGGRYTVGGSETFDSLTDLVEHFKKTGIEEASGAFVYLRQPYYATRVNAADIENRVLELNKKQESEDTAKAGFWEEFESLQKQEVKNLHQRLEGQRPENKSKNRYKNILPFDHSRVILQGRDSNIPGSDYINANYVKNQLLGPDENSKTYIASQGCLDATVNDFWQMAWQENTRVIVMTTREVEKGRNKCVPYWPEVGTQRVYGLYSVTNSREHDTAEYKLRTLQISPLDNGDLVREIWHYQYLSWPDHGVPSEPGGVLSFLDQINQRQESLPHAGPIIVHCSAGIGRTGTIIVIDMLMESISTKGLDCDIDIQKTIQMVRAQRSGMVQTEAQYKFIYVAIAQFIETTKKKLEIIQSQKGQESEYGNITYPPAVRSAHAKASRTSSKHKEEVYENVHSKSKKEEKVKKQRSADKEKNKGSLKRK", "assay": "Pulse inhibition of SHP-1 in macrophages, SHP-1 activity (pNpp) over time", "type": "cell-based, murine", "method": "FIGS. 4A and 4B depict that pulse inhibition of SHP-1 transiently enhances proinflammatory signal transduction in macrophages. FIG. 4A: murine macrophages (bone marrow derived macrophages, or “BMDM”) were treated with TPI-1 for 15 min followed by wash to complete removal of TPI-1. At different time points after the TPI-1 treatment, macrophages were stimulated with IFNγ/LPS in the presence of alive cancer cells (1:1 ratio to BMDM) for 20 min prior to cell lysis and assaying SHP-1 activity using pNpp and WB detecting total and phosphorylated STAT1 and Erk1/2. FIG. 4B: the same setting as in FIG. 4A, except that after TPI-1 treatment, TPI-1 in medium was partially removed (50%) or without removal, followed by macrophage stimulation with IFNγ/LPS at different time points."}, "macrophages [5]": {"system": "macrophages", "assay": "Macrophage cytokine production under immunosuppressive or proinflammatory stimulation with cancer cell ligation", "type": "cell-based", "description": "FIGS. 6A-6D depict that the inhibition of SHP-1 promotes anti-tumor effects or pro-tumor effects under different circumstances. FIG. 6A depicts that intratumoral macrophages upregulate expression of iRs (Pir-B, Siglec E, F and G, and SIRPα) along with tumor progression to late-stage large sizes. KPC pancreatic tumors of small sizes (<150 mm^3) and those grown to larger sizes (>800 mm^3) were dissociated to single cells, followed by flow cytometry analyses for cell surface protein expression on macrophages (gated F4/80+). FIG. 6B depicts that the inhibition of SHP-1 alone promotes TME immunosuppression. Excised MC38 solid tumor cubes were treated with SHP-1 inhibitor TPI-1 (100 nM) or vehicle (DMSO) in a cell culture setting. After 24 h, tumor secreting cytokines into the culture medium were assayed by ELISA.\nThe SHP-1 activity in non-therapeutic solid tumors is low (see FIGS. 7A-7D), and this low activity inhibits immunosuppressive receptor signaling. […] In parallel experiments, the same SHP-1 inhibitors augmented macrophage responses to the M1 stimuli IFNγ and LPS and enhanced proinflammatory cytokine production."}, "[6]": {"system": "MC38 colorectal carcinoma", "assay": "TME analysis of MC38 colorectal carcinoma in mice", "type": "in vivo, murine", "description": "FIGS. 8A-8E depict that SHP-1 inhibition combined with TLR agonists (αTLR) reprograms TME of MC38 colorectal carcinoma. FIG. 8A depicts MC38 tumor treatment scheme."}, "LLC lung cancer": {"system": "LLC lung cancer", "assay": "Study-3: iSHP-1 with RT and αPD-L1, LLC lung cancer", "type": "in vivo, mice", "settings": "TPI-1 3 or 5 mg/kg i.p. every 3 days, right flank RT 8Gy-4Gy-2Gy, αPD-L1 100 μg", "method": "FIGS. 13A-13E depict pulse-intermittent SHP-1 inhibition (iSHP-1) combination with RT and αPD-L1 treating pancreatic cancer and lung cancer. FIG. 13A depicts experimental schemes. […] Concomitantly, the tumor at the right flank was treated with 8Gy X-ray radiation (RT). After two days of intermittent period, mice on day 4 were treated with the 2nd cycle TPI-1 (i.p.) of the same dose while RT reduced to 4Gy applied to the right flank tumor. The 3rd cycle (day 7) iSHP-1 combination with RT reduced to 2Gy. Anti-PD-L1 Ab (100 μg, i.p.) was given a day following TPI-1 plus RT. FIG. 13B depicts luminescent image tracing KPC-luc and LLC-luc tumor changes post treatment. FIG. 13C depicts record of tumor volume changes and animal survival up to post-treatment 45 days.\nModalities & Dosing Strategy: i) iSHP-1—TPI-1, 3 or 5 mg/kg, i.p., 1× every 3 days. ii) Tumor focal RT: 8Gy-4Gy-2Gy, given to right flank simultaneously with iSHP-1. iii) αPD-L1: 100 μg, i.p., given a day after iSHP-1 plus RT"}}, "data": [{"smiles": "O=C1C=CC(=O)C(c2cc(Cl)ccc2Cl)=C1", "note": "[TPI-1]", "values": [{"measurement": "SHP-1 activity in macrophages (effect in words)", "setting": "SHP-1 [1]", "result": "potently inhibited SHP-1 activity at low concentrations"}, {"measurement": "expression of immunogenic antigen presentation machinery", "setting": "macrophages [2]", "result": "elevated macrophage production of proinflammatory cytokines and expression of immunogenic antigen presentation machinery"}, {"measurement": "macrophage proinflammatory cytokine production", "setting": "macrophages [2]", "result": "elevated macrophage production of proinflammatory cytokines"}, {"measurement": "reinforcement of immunosuppression (IL-10)", "setting": "macrophages [2]", "result": "reversed"}, {"measurement": "phagocytosis of cancer cells", "setting": "[3]", "result": "promotes proinflammatory-activated macrophages for phagocytosis of cancer cells"}, {"measurement": "duration of pulse SHP-1 inhibition before activity starts to recover", "setting": "SHP-1 [4]; 15 min treatment, then wash", "result": "5 to 8", "unit": "h"}, {"measurement": "time for SHP-1 activity to recover to over 50%", "setting": "SHP-1 [4]; 15 min treatment, then wash", "result": "12 to 16", "unit": "h"}, {"measurement": "SHP-1 total protein", "setting": "SHP-1 [4]; after pulse inhibition", "result": "did not appear to vary"}, {"measurement": "SHP-1 inhibition (in words)", "setting": "SHP-1 [4]; immediately after 15 min treatment and wash", "result": "strong SHP-1 inhibition"}, {"measurement": "SHP-1 activity recovered", "setting": "SHP-1 [4]; in 12-16 h after 15 min treatment and wash", "result": "over 50%"}, {"measurement": "time to recover SHP-1 activity after pulse inhibition", "setting": "SHP-1 [4]; pulse inhibition in macrophages", "result": 24, "unit": "h"}, {"measurement": "SHP-1 inhibition without or with partial inhibitor removal", "setting": "SHP-1 [4]; without removal or 50% removal", "result": "elongated inhibition on the SHP-1 activity"}, {"measurement": "macrophage production of IL-12 and TNFα", "setting": "macrophages [5]; IFNγ and LPS", "result": "dose-dependently augmented macrophage proinflammatory response with increased IL-12 and TNFα"}, {"measurement": "macrophage production of IL-10 and TGFβ", "setting": "macrophages [5]; IL-4/13 or IL-10 stimulation", "result": "dose-dependently augmented"}, {"measurement": "intratumoral macrophages", "setting": "[6]; TPI-1 and αTLR", "result": "marked reduction of intratumoral macrophages"}, {"measurement": "TME reprogramming", "setting": "[6]; TPI-1 combined with αTLR", "result": "reduction of tumor cells, and increases in immune infiltration especially tumoricidal CD8 T cells, neutrophils (PMN) and NK cells, while reduction of macrophages, MDSC and Treg"}, {"measurement": "tumor elimination incl. distal lesions", "setting": "LLC lung cancer", "result": "effectively eliminating or repressing KPC pancreatic cancer and LLC lung cancer along with distal lesions"}]}]}
